For two compounds, IC50 results are on record in patent US5968801A, “Polyhydroxyalkanoate depolymerase and process for producing the same” (Taisei Corporation, priority 1997, dated 1999).

In the assay the target is PHA depolymerase. It is filed as biochemical, Corynebacterium aquaticum IM-1. As to conditions: pH 6.5; read-out: IC50 (concentration of inhibitor at which the enzyme activity was inhibited by 50%).

`O[C@H](CS)[C@H](O)CS` (racemic) [DTT, dithiothreitol]: the IC50 stood at 73 mM.
To `O=S(=O)(F)Cc1ccccc1` [PMSF, Phenylmethylsulfonyl fluoride] belongs 1.92 mM.
